Columns and labels:
[1] = test system: normal NK cells expanded with K562-aAPC; assay: drug sensitivity score (DSS) (DSS units); higher = more sensitive; extreme values may be limits of the assay; settings: 72 h; IL-2 2.5 ng/mL
Method: (§1)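 Drug sensitivity and resistance testing on K562-aAPC-expanded normal NK cells: 5 concentrations (10-fold steps over a 10,000-fold range), 72 h at 37 °C, viability by CellTiter-Glo normalised to DMSO and benzethonium chloride controls; DSS from the fitted curve.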

NKL (IL-2 2.5 ng/mL) [2] = assay: percent inhibition of viability; higher = more inhibition; settings: 72 h
NK-92 (IL-2 2.5 ng/mL) [3] = assay: as above; settings: 72 h
DERL-7 (IL-2 2.5 ng/mL) [4] = assay: as above; settings: 72 h
[5] = test system: normal primary NK cells, pool 1 (3 donors) (IL-2 2.5 ng/mL); assay: as above; settings: 72 h
YT (IL-2 2.5 ng/mL) [6] = assay: as above; settings: 72 h
SNK-6 (IL-2 2.5 ng/mL) [7] = assay: as above; settings: 72 h
KAI3 (IL-2 2.5 ng/mL) [8] = assay: as above; settings: 72 h
[9] = test system: normal primary NK cells, pool 1 (3 donors), resting (IL-2 0 ng/mL); assay: as above; settings: 72 h
[10] = test system: normal primary NK cells, pool 3 (3 donors) (IL-2 2.5 ng/mL); assay: as above; settings: 72 h
IMC-1 (IL-2 20 ng/mL) [11] = assay: as above; settings: 72 h
NK-YS (IL-2 2.5 ng/mL) [12] = assay: as above; settings: 72 h
KHYG-1 (IL-2 2.5 ng/mL) [13] = assay: as above; settings: 72 h
[14] = test system: normal primary NK cells, pool 2 (3 donors) (IL-2 2.5 ng/mL); assay: as above; settings: 72 h
[15] = test system: normal NK cells expanded with K562-aAPC; assay: as above; settings: 72 h, IL-2 2.5 ng/mL
Method: as §1

NKL (IL-2 2.5 ng/mL) [16] = assay: drug sensitivity score (DSS) (DSS units); higher = more sensitive; extreme values may be limits of the assay; settings: 72 h
NK-92 (IL-2 2.5 ng/mL) [17] = assay: as above; settings: 72 h
DERL-7 (IL-2 2.5 ng/mL) [18] = assay: as above; settings: 72 h
[19] = test system: normal primary NK cells, pool 1 (3 donors) (IL-2 2.5 ng/mL); assay: as above; settings: 72 h
YT (IL-2 2.5 ng/mL) [20] = assay: as above; settings: 72 h
SNK-6 (IL-2 2.5 ng/mL) [21] = assay: as above; settings: 72 h
KAI3 (IL-2 2.5 ng/mL) [22] = assay: as above; settings: 72 h
[23] = test system: normal primary NK cells, pool 1 (3 donors), resting (IL-2 0 ng/mL); assay: as above; settings: 72 h
[24] = test system: normal primary NK cells, pool 3 (3 donors) (IL-2 2.5 ng/mL); assay: as above; settings: 72 h
IMC-1 (IL-2 20 ng/mL) [25] = assay: as above; settings: 72 h
NK-YS (IL-2 2.5 ng/mL) [26] = assay: as above; settings: 72 h
KHYG-1 (IL-2 2.5 ng/mL) [27] = assay: as above; settings: 72 h
[28] = test system: normal primary NK cells, pool 2 (3 donors) (IL-2 2.5 ng/mL); assay: as above; settings: 72 h

CO[C@H]1C[C@@H]2CC[C@@H](C)[C@@](O)(O2)C(=O)C(=O)N2CCCC[C@H]2C(=O)O[C@H]([C@H](C)C[C@@H]2CC[C@@H](OP(C)(C)=O)[C@H](OC)C2)CC(=O)[C@H](C)/C=C(\C)[C@@H](O)[C@@H](OC)C(=O)[C@H](C)C[C@H](C)/C=C/C=C/C=C/1C [Ridaforolimus] (max concentration tested 100 nM)
Settings | drug sensitivity score
DERL-7 (IL-2 2.5 ng/mL) [18] | 13.3
IMC-1 (IL-2 20 ng/mL) [25] | 0
KAI3 (IL-2 2.5 ng/mL) [22] | 12.4
KHYG-1 (IL-2 2.5 ng/mL) [27] | 5.97
NK-92 (IL-2 2.5 ng/mL) [17] | 3.73
NK-YS (IL-2 2.5 ng/mL) [26] | 16
NKL (IL-2 2.5 ng/mL) [16] | 19.2
SNK-6 (IL-2 2.5 ng/mL) [21] | 15.6
YT (IL-2 2.5 ng/mL) [20] | 11.2
[1] | 1.24
[19] | 3.96
[23] | 9.48
[24] | 0.06
[28] | 2.58

percent inhibition of viability [%]
Settings | 0.01 nM | 0.1 nM | 1 nM | 10 nM | 100 nM
DERL-7 (IL-2 2.5 ng/mL) [4] | -15.4 | 2.83 | 28.9 | 51.2 | 57.3
IMC-1 (IL-2 20 ng/mL) [11] | -3.33 | -2.56 | -12.9 | -45.3 | -38.3
KAI3 (IL-2 2.5 ng/mL) [8] | -4.12 | -7.54 | 27.9 | 44 | 48.8
KHYG-1 (IL-2 2.5 ng/mL) [13] | -5.83 | -9.85 | 0.66 | 26.3 | 51.1
NK-92 (IL-2 2.5 ng/mL) [3] | -28.6 | -5.36 | -5.98 | 12.4 | 39
NK-YS (IL-2 2.5 ng/mL) [12] | -0.81 | 5.33 | 44.5 | 49.8 | 54.8
NKL (IL-2 2.5 ng/mL) [2] | -1.33 | 21.2 | 50.1 | 55 | 58.3
SNK-6 (IL-2 2.5 ng/mL) [7] | -5.16 | -2.57 | 46.2 | 46 | 55
YT (IL-2 2.5 ng/mL) [6] | -4.71 | -6.15 | 16.4 | 48.4 | 45.6
[5] | -8.79 | 8.41 | 13.3 | 20.3 | 11.8
[9] | -5.23 | 14.6 | 24.1 | 30.7 | 28.2
[10] | -5.53 | 6.52 | 5.98 | 8.12 | 11
[14] | -12.7 | 6.23 | 9.36 | 16.1 | 19.1
[15] | -10 | -8.61 | -0.94 | 10.6 | 16.8

Nc1ncn([C@@H]2O[C@H](CO)[C@@H](O)[C@H]2O)c(=O)n1 [Azacitidine] (max concentration tested 10000 nM)
Settings | drug sensitivity score
DERL-7 (IL-2 2.5 ng/mL) [18] | 8.4
IMC-1 (IL-2 20 ng/mL) [25] | 4.03
KAI3 (IL-2 2.5 ng/mL) [22] | 6.42
KHYG-1 (IL-2 2.5 ng/mL) [27] | 8.51
NK-92 (IL-2 2.5 ng/mL) [17] | 8.11
NK-YS (IL-2 2.5 ng/mL) [26] | 6.22
NKL (IL-2 2.5 ng/mL) [16] | 2.92
SNK-6 (IL-2 2.5 ng/mL) [21] | 10.7
YT (IL-2 2.5 ng/mL) [20] | 1.12
[1] | 4
[19] | 2.65
[23] | 1.88
[24] | 0.77
[28] | 1.04

percent inhibition of viability [%]
Settings | 1 nM | 10 nM | 100 nM | 1000 nM | 10000 nM
DERL-7 (IL-2 2.5 ng/mL) [4] | 2.03 | 3.15 | 2.51 | 24.5 | 85.6
IMC-1 (IL-2 20 ng/mL) [11] | -6.44 | -3.39 | 2.53 | -7.92 | 82.7
KAI3 (IL-2 2.5 ng/mL) [8] | -2.09 | -1.87 | 2.62 | 26.2 | 60.5
KHYG-1 (IL-2 2.5 ng/mL) [13] | -4.59 | -3.23 | 2.46 | 23.2 | 89.6
NK-92 (IL-2 2.5 ng/mL) [3] | -4.17 | -12.4 | -0.66 | 23.1 | 83.7
NK-YS (IL-2 2.5 ng/mL) [12] | -2.67 | -1.33 | 3.5 | 15.9 | 67.6
NKL (IL-2 2.5 ng/mL) [2] | -16.7 | -17.1 | -14.1 | -11.2 | 65.5
SNK-6 (IL-2 2.5 ng/mL) [7] | -3.1 | 1 | 15.7 | 47.1 | 67.8
YT (IL-2 2.5 ng/mL) [6] | -1.86 | -3.15 | -1.98 | -0.51 | 28
[5] | -2.2 | -10.3 | 1.35 | 9.04 | 30.6
[9] | -3.24 | -12.3 | 5.31 | 4.81 | 27.4
[10] | -6.45 | -3.68 | -2.24 | -3.82 | 25.5
[14] | -6.68 | -8.85 | -5.14 | -3.32 | 29.2
[15] | -4.42 | -10.9 | -6.84 | 4.72 | 60.3

Cc1ccc(F)c(NC(=O)Nc2ccc(-c3cccc4[nH]nc(N)c34)cc2)c1 [Linifanib] (max concentration tested 1000 nM)
Settings | drug sensitivity score
DERL-7 (IL-2 2.5 ng/mL) [18] | 0
IMC-1 (IL-2 20 ng/mL) [25] | 0
KAI3 (IL-2 2.5 ng/mL) [22] | 0.91
KHYG-1 (IL-2 2.5 ng/mL) [27] | 0
NK-92 (IL-2 2.5 ng/mL) [17] | 0.9
NK-YS (IL-2 2.5 ng/mL) [26] | 0
NKL (IL-2 2.5 ng/mL) [16] | 1.69
SNK-6 (IL-2 2.5 ng/mL) [21] | 0
YT (IL-2 2.5 ng/mL) [20] | 0
[1] | 0
[19] | 0.05
[23] | 3.83
[24] | 0
[28] | 0

percent inhibition of viability [%]
Settings | 0.1 nM | 1 nM | 10 nM | 100 nM | 1000 nM
DERL-7 (IL-2 2.5 ng/mL) [4] | -3.48 | 1.81 | 3.09 | 2.4 | -1.99
IMC-1 (IL-2 20 ng/mL) [11] | -6.64 | -7.44 | -3.21 | -3.37 | 1.06
KAI3 (IL-2 2.5 ng/mL) [8] | -0.03 | -0.25 | -3.05 | 7.49 | 15.8
KHYG-1 (IL-2 2.5 ng/mL) [13] | -6.67 | -7.43 | -4.03 | -0.13 | 5.26
NK-92 (IL-2 2.5 ng/mL) [3] | -24.1 | -23.8 | -13.7 | -0.86 | 25.2
NK-YS (IL-2 2.5 ng/mL) [12] | -6.27 | -8.05 | -4.24 | 4.76 | 5.97
NKL (IL-2 2.5 ng/mL) [2] | -6.64 | -0.61 | 0.44 | 14.6 | 17.6
SNK-6 (IL-2 2.5 ng/mL) [7] | -2.9 | 19.3 | 2.79 | -3.57 | -1.81
YT (IL-2 2.5 ng/mL) [6] | -5.45 | -5.75 | -1.04 | 3.95 | 7.04
[5] | -6.2 | 0.66 | 14.2 | 7.19 | 6.85
[9] | -0.38 | 0.34 | 17.6 | 14.6 | 9.36
[10] | -14.8 | -8.58 | 1.59 | 7.84 | 2.88
[14] | -14 | -8.34 | -3.37 | 7.22 | 4.22
[15] | -6.15 | -1.69 | -7.22 | -1.27 | 8.03

CC(C)(C)c1cnc(CSc2cnc(NC(=O)C3CCNCC3)s2)o1 [SNS-032] (max concentration tested 10000 nM)
Settings | drug sensitivity score
DERL-7 (IL-2 2.5 ng/mL) [18] | 26.9
IMC-1 (IL-2 20 ng/mL) [25] | 29.5
KAI3 (IL-2 2.5 ng/mL) [22] | 25.1
KHYG-1 (IL-2 2.5 ng/mL) [27] | 18.7
NK-92 (IL-2 2.5 ng/mL) [17] | 19.8
NK-YS (IL-2 2.5 ng/mL) [26] | 29
NKL (IL-2 2.5 ng/mL) [16] | 32.3
SNK-6 (IL-2 2.5 ng/mL) [21] | 13.4
YT (IL-2 2.5 ng/mL) [20] | 24.9
[1] | 22.3
[19] | 28.1
[23] | 26.1
[24] | 23.9
[28] | 26.6

percent inhibition of viability [%]
Settings | 1 nM | 10 nM | 100 nM | 1000 nM | 10000 nM
DERL-7 (IL-2 2.5 ng/mL) [4] | 0.08 | -3.51 | 77.5 | 100 | 100
IMC-1 (IL-2 20 ng/mL) [11] | -4.98 | -6.51 | 97.6 | 99.1 | 98.8
KAI3 (IL-2 2.5 ng/mL) [8] | -8.15 | 9.55 | 57.9 | 103 | 98.3
KHYG-1 (IL-2 2.5 ng/mL) [13] | -2.99 | -6.55 | 4.29 | 102 | 102
NK-92 (IL-2 2.5 ng/mL) [3] | -11.5 | -4.07 | 11.5 | 98.8 | 101
NK-YS (IL-2 2.5 ng/mL) [12] | -1.14 | 9.07 | 83.6 | 100 | 99.8
NKL (IL-2 2.5 ng/mL) [2] | -10.4 | 11.6 | 97.8 | 106 | 103
SNK-6 (IL-2 2.5 ng/mL) [7] | 17.9 | 2.01 | 31.7 | 54 | 38
YT (IL-2 2.5 ng/mL) [6] | -0.35 | 4.14 | 57.7 | 103 | 101
[5] | -14.2 | -9.83 | 88.9 | 98.2 | 98.8
[9] | -12.8 | -19.9 | 79.9 | 91.5 | 93.9
[10] | -17.4 | -11.5 | 48.5 | 98.1 | 99
[14] | -21 | -13.7 | 80.7 | 94.5 | 96.5
[15] | 2.77 | 0 | 29.2 | 100 | 100
